The target in one experiment is Acetylcholinesterase (Electrophorus electricus, UniProt O42275).
The target of experiment [1] is Acetylcholinesterase (Homo sapiens) (UniProt P22303). Nature of the experiment: Ratio of compound activity to curcumin activity for inhibition of acetylcholinesterase (unknown origin)-induced amyloid beta(1 to 42) aggregation.
For experiment [2] the target is unchanged. Nature of the experiment: Ratio of compound activity to tacrine activity for inhibition of acetylcholinesterase (unknown origin)-induced amyloid beta(1 to 42) aggregation.
Experiment [3] concerns the target Acetylcholinesterase (Electrophorus electricus) (UniProt O42275). Nature of the experiment: Inhibition of electric eel acetylcholinesterase using acetylthiocholine as substrate up to 100 uM incubated for 15 mins followed by substrate addition measured for 2 mins by Ellman's method relative to control. For orientation: Ellman's reagent forms a yellow product with free thiols.

A further experiment deals with Cholinesterase (Equus caballus, UniProt P81908).
Another experiment can be described thus: cells. To be noted: Homo sapiens, SH-SY5Y, 48 h.
The target in experiment [4] is Acetylcholinesterase (Electrophorus electricus) (UniProt O42275). Nature of the experiment: Mixed-type inhibition of electric eel AChE using acetylthiocholine as substrate at 3.125 to 50 nM after 15 mins by Lineweaver-Burk plot analysis.
For experiment [5] the target is unchanged. The experiment is described as follows: Ratio of tacrine IC50 to compound IC50 for electric eel acetylcholinesterase.

Activity calls are given as the source filed them. The rule behind the calls is not given here. A value given as a limit tells only on which side of the number the result lay.

Acetylcholinesterase (Electrophorus electricus), sequence (O42275 24-633 limits assumed): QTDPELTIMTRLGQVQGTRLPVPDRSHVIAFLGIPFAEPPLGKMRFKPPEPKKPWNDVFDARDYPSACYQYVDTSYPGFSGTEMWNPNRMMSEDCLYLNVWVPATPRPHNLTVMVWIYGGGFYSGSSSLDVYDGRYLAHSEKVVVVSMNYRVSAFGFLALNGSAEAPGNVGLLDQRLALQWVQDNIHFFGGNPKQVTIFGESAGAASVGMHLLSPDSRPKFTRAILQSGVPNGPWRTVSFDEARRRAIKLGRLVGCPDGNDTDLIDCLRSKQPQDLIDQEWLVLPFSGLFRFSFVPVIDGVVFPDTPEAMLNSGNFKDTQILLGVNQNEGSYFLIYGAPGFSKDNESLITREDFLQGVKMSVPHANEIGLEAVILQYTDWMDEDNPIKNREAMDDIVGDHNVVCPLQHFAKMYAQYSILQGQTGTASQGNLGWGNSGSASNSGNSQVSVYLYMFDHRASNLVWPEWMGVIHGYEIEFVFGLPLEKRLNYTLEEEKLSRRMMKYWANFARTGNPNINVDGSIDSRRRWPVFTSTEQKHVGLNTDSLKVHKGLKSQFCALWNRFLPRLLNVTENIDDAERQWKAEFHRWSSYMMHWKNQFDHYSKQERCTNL
Cholinesterase, sequence (P81908 whole entry): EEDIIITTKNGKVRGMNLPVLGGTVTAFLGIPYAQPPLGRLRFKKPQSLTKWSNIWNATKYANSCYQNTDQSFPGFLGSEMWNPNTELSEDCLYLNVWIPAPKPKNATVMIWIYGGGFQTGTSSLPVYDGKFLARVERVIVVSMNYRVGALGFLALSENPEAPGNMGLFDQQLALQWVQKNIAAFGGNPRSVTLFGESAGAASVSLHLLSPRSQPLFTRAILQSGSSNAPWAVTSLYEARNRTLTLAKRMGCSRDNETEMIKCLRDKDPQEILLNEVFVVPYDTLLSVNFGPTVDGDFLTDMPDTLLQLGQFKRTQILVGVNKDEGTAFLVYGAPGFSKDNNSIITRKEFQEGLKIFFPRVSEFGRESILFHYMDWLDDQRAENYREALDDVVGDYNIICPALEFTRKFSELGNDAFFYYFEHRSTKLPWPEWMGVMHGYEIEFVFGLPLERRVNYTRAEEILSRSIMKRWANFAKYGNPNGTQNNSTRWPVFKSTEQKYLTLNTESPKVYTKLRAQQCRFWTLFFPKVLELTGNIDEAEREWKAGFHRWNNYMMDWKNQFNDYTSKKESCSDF
Acetylcholinesterase (Homo sapiens), sequence (P22303 whole entry): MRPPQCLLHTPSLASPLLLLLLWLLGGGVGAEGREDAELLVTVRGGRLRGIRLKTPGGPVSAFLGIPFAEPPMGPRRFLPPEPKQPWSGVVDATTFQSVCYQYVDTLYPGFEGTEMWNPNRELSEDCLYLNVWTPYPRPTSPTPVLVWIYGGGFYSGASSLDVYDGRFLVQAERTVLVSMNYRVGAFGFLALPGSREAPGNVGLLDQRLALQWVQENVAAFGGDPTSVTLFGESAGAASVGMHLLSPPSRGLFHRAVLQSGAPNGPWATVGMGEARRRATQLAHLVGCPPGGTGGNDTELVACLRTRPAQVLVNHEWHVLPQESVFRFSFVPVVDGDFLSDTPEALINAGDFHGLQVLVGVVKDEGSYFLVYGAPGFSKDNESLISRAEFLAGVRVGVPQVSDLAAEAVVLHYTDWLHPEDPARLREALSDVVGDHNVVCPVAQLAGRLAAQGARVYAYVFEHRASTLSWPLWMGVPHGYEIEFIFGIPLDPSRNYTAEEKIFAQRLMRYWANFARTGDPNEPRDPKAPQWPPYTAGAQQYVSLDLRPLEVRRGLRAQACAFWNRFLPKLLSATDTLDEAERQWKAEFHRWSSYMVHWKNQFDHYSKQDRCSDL
Acetylcholinesterase, sequence (O42275 whole entry): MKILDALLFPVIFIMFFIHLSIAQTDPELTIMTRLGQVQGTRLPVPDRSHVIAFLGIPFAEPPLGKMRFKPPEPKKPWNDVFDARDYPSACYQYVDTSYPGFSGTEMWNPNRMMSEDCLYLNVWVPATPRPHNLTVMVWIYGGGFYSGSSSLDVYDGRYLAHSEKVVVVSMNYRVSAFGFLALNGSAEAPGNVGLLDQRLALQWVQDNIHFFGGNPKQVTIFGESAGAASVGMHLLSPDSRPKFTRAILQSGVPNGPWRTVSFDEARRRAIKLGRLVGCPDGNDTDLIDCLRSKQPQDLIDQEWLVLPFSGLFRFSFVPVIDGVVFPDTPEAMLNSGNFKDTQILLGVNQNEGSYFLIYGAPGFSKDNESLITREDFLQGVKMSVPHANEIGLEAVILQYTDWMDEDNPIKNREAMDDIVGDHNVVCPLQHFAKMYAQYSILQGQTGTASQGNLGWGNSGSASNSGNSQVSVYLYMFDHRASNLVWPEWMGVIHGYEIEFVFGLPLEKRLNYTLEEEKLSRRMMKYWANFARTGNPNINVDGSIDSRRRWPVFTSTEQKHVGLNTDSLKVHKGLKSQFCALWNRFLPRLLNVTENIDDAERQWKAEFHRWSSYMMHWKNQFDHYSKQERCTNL
Description for cells: Cytotoxicity against human SH-SY5Y cells assessed as cell viability after 48 hrs by MTT assay

What is called IC50 is the point on the concentration scale where inhibition reaches its midpoint. For orientation: inhibition means the change of the read-out against control, counted positive when it falls. Take `O=C(COc1cccnc1)Nc1ccc2nc3c4[nH]c5ccccc5c4ccn3c(=O)c2c1`: the IC50 against Acetylcholinesterase came to 0.00309 µM; on Cholinesterase, 7.3 µM. Moreover, the Ratio in experiment [1] turned out to be 2.2; in experiment [2] it was 15.3. The compound also displayed an inhibition in experiment [3] of 20%.

For `COc1cc(/C=C/C(=O)CC(=O)/C=C/c2ccc(O)c(OC)c2)ccc1O` [CURCUMIN], the IC50 in “cells” came to 35.6 µM.

On to `O=C(CCc1ccccc1)Nc1ccc2nc3c4[nH]c5ccccc5c4ccn3c(=O)c2c1`, for which the IC50 was determined as 0.108 µM on Acetylcholinesterase and 26.1 µM against Cholinesterase. Moreover, the Ratio in experiment [1] is 2.2; in experiment [2] it was 15.3. Also, the inhibition in experiment [3] came out at 20%.

With `Cn1cc[n+](CC(=O)Nc2ccc3nc4c5[nH]c6ccccc6c5ccn4c(=O)c3c2)c1`, the IC50 at Acetylcholinesterase is 0.008 µM; in “cells” it was over 100 µM; against Cholinesterase, 7.34 µM. Besides, the figures for the Ratio in experiment [1] and in experiment [2] were 2.2 and 15.3, respectively. The inhibition in experiment [3] was 20%.

As to `O=C(CC[n+]1ccccc1)Nc1ccc2nc3c4[nH]c5ccccc5c4ccn3c(=O)c2c1`, the values for the IC50 on Acetylcholinesterase, in the experiment “cells” and against Cholinesterase were 0.0023 µM, over 100 µM and 4.29 µM, respectively. Besides, the Ratio in experiment [1] came out at 2.2; in experiment [2], 15.3. In experiment [3], the inhibition was determined as 20%.

Take `CN1CCN(CC(=O)Nc2ccc3nc4c5[nH]c6ccccc6c5ccn4c(=O)c3c2)CC1`: the figures for the IC50 against Acetylcholinesterase, in the experiment “cells” and against Cholinesterase were 0.158 µM, 8.6 µM and 29.1 µM, respectively. For the same compound, the Ratio worked out at 2.2 in experiment [1] and 15.3 in experiment [2]. Besides, the inhibition in experiment [3] stood at 20%.

`O=C(Cc1ccccc1)Nc1ccc2nc3c4[nH]c5ccccc5c4ccn3c(=O)c2c1`: the half-inhibitory concentration (IC50) against Acetylcholinesterase came to 0.116 µM; on Cholinesterase, 24.9 µM. Besides, the Ratio in experiment [1] worked out at 2.2; in experiment [2], 15.3. Moreover, the inhibition in experiment [3] was found to be 20%.

As to `Cn1cc[n+](CCC(=O)Nc2ccc3nc4c5[nH]c6ccccc6c5ccn4c(=O)c3c2)c1`, the IC50 against Acetylcholinesterase was 0.0093 µM; in the experiment “cells”, over 100 µM; against Cholinesterase, 7.02 µM. For the same compound, the Ratio in experiment [1] is 2.2; in experiment [2], 15.3. In addition, the inhibition in experiment [3] amounted to 20%.

Consider `Cn1cc[n+](CCCC(=O)Nc2ccc3nc4c5[nH]c6ccccc6c5ccn4c(=O)c3c2)c1`, for which the figures for the IC50 on Acetylcholinesterase and at Cholinesterase were 0.0117 µM and 8.2 µM, respectively. For the same compound, the Ratio in experiment [1] is 2.2; in experiment [2] it was 15.3. In experiment [3], this compound showed an inhibition of 20%.

In the case of `O=C(CCN1CCCCC1)Nc1ccc2nc3c4[nH]c5ccccc5c4ccn3c(=O)c2c1`, the figures for the IC50 against Acetylcholinesterase, in “cells” and on Cholinesterase were 0.051 µM, 5 µM and 24 µM, respectively. In addition, the Ratio in experiment [1] came out at 2.2; in experiment [2] it was 15.3. In experiment [3], this compound registered an inhibition of 20%.

As for `O=C(CC[n+]1cccc(F)c1)Nc1ccc2nc3c4[nH]c5ccccc5c4ccn3c(=O)c2c1`, the IC50 was 0.0021 µM against Acetylcholinesterase, over 100 µM in “cells” and 3.49 µM against Cholinesterase. In addition, the Ratio was 2.2 in experiment [1] and 15.3 in experiment [2]. In experiment [3], this compound showed an inhibition of 20%.

Regarding `O=C(CCCc1ccccc1)Nc1ccc2nc3c4[nH]c5ccccc5c4ccn3c(=O)c2c1`, the IC50 against Acetylcholinesterase was determined as 0.136 µM; on Cholinesterase it was 24.6 µM. Also, the Ratio in experiment [1] turned out to be 2.2; in experiment [2] it was 15.3. The same compound returned an inhibition in experiment [3] of 20%.

For `O=C(CCN1CCCC1)Nc1ccc2nc3c4[nH]c5ccccc5c4ccn3c(=O)c2c1`, the IC50 was determined as 0.0139 µM against Acetylcholinesterase, 21.2 µM in the experiment “cells” and 14.9 µM on Cholinesterase. Moreover, the inhibition result in experiment [4] was “Active”. The Ratio in experiment [1] worked out at 2.2; in experiment [2], 15.3. The same compound showed an inhibition in experiment [3] of 20%.

`O=C(CCCN1CCCC1)Nc1ccc2nc3c4[nH]c5ccccc5c4ccn3c(=O)c2c1`: the IC50 came to 0.0846 µM on Acetylcholinesterase and 18.5 µM at Cholinesterase. The Ratio in experiment [1] worked out at 2.2; in experiment [2], 15.3. Further, in experiment [3], the inhibition is 20%.

Turning to `O=C(C[n+]1ccccc1)Nc1ccc2nc3c4[nH]c5ccccc5c4ccn3c(=O)c2c1`, the IC50 was 0.0008 µM on Acetylcholinesterase, over 100 µM in the experiment “cells” and 2.45 µM against Cholinesterase. In addition, the Ratio IC50 in experiment [5] came out at 160. The Ratio in experiment [1] is 2.2; in experiment [2] it was 15.3. Besides, the inhibition in experiment [3] was determined as 20%.

As to `CN(C)CC(=O)Nc1ccc2nc3c4[nH]c5ccccc5c4ccn3c(=O)c2c1`, the results for the IC50 against Acetylcholinesterase, in the experiment “cells” and against Cholinesterase were 0.0701 µM, 4.1 µM and 26.5 µM, respectively. The Ratio in experiment [1] turned out to be 2.2; in experiment [2], 15.3. Moreover, in experiment [3], the inhibition was determined as 20%.

Turning to `O=C(CCNc1ccccc1)Nc1ccc2nc3c4[nH]c5ccccc5c4ccn3c(=O)c2c1`, the IC50 is 0.0875 µM against Acetylcholinesterase and 27.8 µM at Cholinesterase. The Ratio turned out to be 2.2 in experiment [1] and 15.3 in experiment [2]. In experiment [3], this compound displayed an inhibition of 20%.

In the case of `CCN(CC)CC(=O)Nc1ccc2nc3c4[nH]c5ccccc5c4ccn3c(=O)c2c1`, the figures for the IC50 against Acetylcholinesterase, in the experiment “cells” and against Cholinesterase were 0.0704 µM, 2.3 µM and 24.1 µM, respectively. The Ratio amounted to 2.2 in experiment [1] and 15.3 in experiment [2]. The compound also came in with an inhibition in experiment [3] of 20%.

Regarding `O=C(CCN1CCOCC1)Nc1ccc2nc3c4[nH]c5ccccc5c4ccn3c(=O)c2c1`, the IC50 against Acetylcholinesterase stood at 0.0786 µM; in “cells”, 3.1 µM; on Cholinesterase, 27.6 µM. Besides, the figures for the Ratio in experiment [1] and in experiment [2] were 2.2 and 15.3, respectively. The compound also came in with an inhibition in experiment [3] of 20%.

On to `O=C(CN1CCOCC1)Nc1ccc2nc3c4[nH]c5ccccc5c4ccn3c(=O)c2c1`, for which the IC50 came out at 0.0878 µM against Acetylcholinesterase, 9.9 µM in “cells” and 28.5 µM against Cholinesterase. In addition, the Ratio in experiment [1] worked out at 2.2; in experiment [2], 15.3. In experiment [3], the inhibition was 20%.

For `CCN(CC)CCC(=O)Nc1ccc2nc3c4[nH]c5ccccc5c4ccn3c(=O)c2c1`, the IC50 against Acetylcholinesterase is 0.0641 µM; in the experiment “cells”, 12.4 µM; against Cholinesterase it was 28.3 µM. The Ratio in experiment [1] is 2.2; in experiment [2], 15.3. The inhibition in experiment [3] turned out to be 20%.

With `CN(C)CCC(=O)Nc1ccc2nc3c4[nH]c5ccccc5c4ccn3c(=O)c2c1`, the values for the IC50 on Acetylcholinesterase, in “cells” and against Cholinesterase were 0.0561 µM, 5.5 µM and 21.4 µM, respectively. For the same compound, the Ratio in experiment [1] turned out to be 2.2; in experiment [2] it was 15.3. This compound gave an inhibition in experiment [3] of 20%.

With `C[N+]1(CCC(=O)Nc2ccc3nc4c5[nH]c6ccccc6c5ccn4c(=O)c3c2)CCCC1`, the IC50 on Acetylcholinesterase came to 0.137 µM; in “cells”, 19.1 µM; against Cholinesterase it was 17.1 µM. The Ratio was 2.2 in experiment [1] and 15.3 in experiment [2]. In experiment [3], the inhibition was 20%.

`CN1CCN(CCC(=O)Nc2ccc3nc4c5[nH]c6ccccc6c5ccn4c(=O)c3c2)CC1`: the IC50 at Acetylcholinesterase was found to be 0.141 µM; in “cells” it was 13.3 µM; on Cholinesterase it was 28.9 µM. Further, the Ratio in experiment [1] is 2.2; in experiment [2] it was 15.3. Moreover, the inhibition in experiment [3] is 20%.

Regarding `O=C(CN1CCCCC1)Nc1ccc2nc3c4[nH]c5ccccc5c4ccn3c(=O)c2c1`, the IC50 against Acetylcholinesterase was found to be 0.07 µM; in the experiment “cells” it was 6.3 µM; against Cholinesterase it was 23.2 µM. Also, the figures for the Ratio in experiment [1] and in experiment [2] were 2.2 and 15.3, respectively. The compound also came in with an inhibition in experiment [3] of 20%.

On to `C[N+](C)(C)CCC(=O)Nc1ccc2nc3c4[nH]c5ccccc5c4ccn3c(=O)c2c1`, for which the IC50 worked out at 0.197 µM at Acetylcholinesterase, 29.2 µM in the experiment “cells” and 37.2 µM against Cholinesterase. Also, the Ratio in experiment [1] amounted to 2.2; in experiment [2] it was 15.3. Besides, the inhibition in experiment [3] stood at 20%.

In the case of `O=C(CCC[n+]1ccccc1)Nc1ccc2nc3c4[nH]c5ccccc5c4ccn3c(=O)c2c1`, the results for the IC50 against Acetylcholinesterase and at Cholinesterase were 0.0039 µM and 4.16 µM, respectively. In addition, the Ratio in experiment [1] came to 2.2; in experiment [2], 15.3. The compound further showed an inhibition in experiment [3] of 20%.

In the case of `O=C(CCOc1cccnc1)Nc1ccc2nc3c4[nH]c5ccccc5c4ccn3c(=O)c2c1`, the half-maximal inhibitory concentration (IC50) came to 0.0143 µM against Acetylcholinesterase and 6.43 µM on Cholinesterase. The Ratio in experiment [1] is 2.2; in experiment [2], 15.3. For the same compound, the inhibition in experiment [3] was 20%.

As for `O=C(CNc1ccccc1)Nc1ccc2nc3c4[nH]c5ccccc5c4ccn3c(=O)c2c1`, the concentration for half-maximal inhibition (IC50) stood at 0.0779 µM on Acetylcholinesterase and 25.3 µM at Cholinesterase. Further, the Ratio in experiment [1] is 2.2; in experiment [2], 15.3. Besides, the inhibition in experiment [3] is 20%.

For the compound `O=C(CN1CCCC1)Nc1ccc2nc3c4[nH]c5ccccc5c4ccn3c(=O)c2c1`, the IC50 came out at 0.0593 µM against Acetylcholinesterase, 2.9 µM in the experiment “cells” and 14.4 µM against Cholinesterase. Besides, the values for the Ratio in experiment [1] and in experiment [2] were 2.2 and 15.3, respectively. The inhibition in experiment [3] worked out at 20%.

The values are drawn from ChEMBL document CHEMBL2375339, “Synthesis and evaluation of 7,8-dehydrorutaecarpine derivatives as potential multifunctional agents for the treatment of Alzheimer's disease” (Eur J Med Chem, 2013).
